Data set [1] has as its system Pythium ultimum. As to the kind of experiment: Pythium ultimum (Damping off) growth inhibition in potato dextrose broth, microtiter plate. The data set is classed as cell-based. The settings on record: Globisporangium ultimum, 24° C., after 48 hours, read-out: control of fungal infection (inhibition of growth, determined photometrically).
Data set [2] has as its system Septoria nodorum. The data set is classed as in vivo. The settings on record: 200 ppm.
For data set [3], the system named is Pyrenophora teres. The data set is classed as in vivo. As to conditions: 200 ppm.
Data set [4] has as its system Puccinia recondita f.sp. tritici. Format: in vivo. The settings on record: 200 ppm.

This note sets out measurements from US7371764B2, “Quinolin-isoquinolin-and quinazolin-oxyalkylamides and their use as fungicides” (priority 2002, dated 2008).

Like-named read-outs stand apart in the source and are kept apart here.

As a reminder, the inhibition is the drop in the measured response relative to a control, in per cent. As usually defined, the melting point is the temperature of the solid-liquid transition.

Take `CCC(Oc1ccc2ncccc2c1)C(=O)NC(C)(C)C#CCOC` (centres unmarked) [12(1), 2-(6-quinolinyloxy)-N-(1-methoxy-4-methylpent-2-yn-4-yl)butyramide]: the inhibition at 20 ppm in data set [1] is above 60%. With `CCC(Oc1ccc2ncccc2c1)C(=O)NC(C)(C)C#CCO` (centres unmarked) [10(1), 2-(6-quinolinyloxy)-N-(1-hydroxy-4-methylpent-2-yn-4-yl) butyramide], the “control of fungal infection (preventive fungicidal activity)” value (“control of fungal infection” below) in data set [2] is recorded as “more than 60%”. `CC#CC(C)(C)NC(=O)C(CC)Oc1ccc2ncncc2c1` (centres unmarked) [2(20), 2-(6-quinazolinoxy)-N-(4-methylpent-2-yn-4-yl) butyramide]: the “control of fungal infection” value in data set [3] is given as “more than 60%”. In the case of `CCC(Oc1ccc2ncc(Br)cc2c1)C(=O)NC(C)(C)C#CCCCC#N` (centres unmarked) [90(77), 2-(3-bromo-6-quinolinyloxy)-N-(1-cyano-6-methylhept-4-yn-6-yl) butyramide], in data set [4], the “control of fungal infection” value was “more than 60%”.

As for `CCC(Oc1ccc2ncccc2c1)C(=O)NC(C)(C)C#CCO[Si](C)(C)C(C)(C)C` (centres unmarked) [50(1), 2-(6-quinolinyloxy)-N-(1-tert-butyldi-methylsilyloxy-4-methylpent-2-yn-4-yl)butyramide], the inhibition at 20 ppm in data set [1] was above 60%. For the compound `CC#CC(C)(C)NC(=O)C(COC)Oc1ccc2ncccc2c1` (centres unmarked) [2(11), 2-(6-quinolinyloxy)-N-(2-methylpent-3-yn-2-yl)-3-methoxypropionamide], the inhibition at 20 ppm in data set [1] (potato dextrose broth) is above 60%. Regarding `CC#CC(C)(C)NC(=O)C(COC)Oc1ccc2ccncc2c1` (centres unmarked) [2(49), 2-(7-isoquinolinyloxy)-N-(2-methylpent-3-yn-2-yl)-3-methoxypropionamide], the melting point fell in the range of 155 to 156 °C. Also, in data set [1] (potato dextrose broth), the inhibition at 20 ppm is above 60%.
